Here are results for one molecule from BindingDB's records for doi:10.1021/acsmedchemlett.9b00286 (Bristol Myers Squibb, 2019).

A short description of the assay: Inhibition of NS5A in HCV genotype 1b assessed as decrease in viral replication.

In the case of `COC(=O)N[C@H](C(=O)N1CCC[C@H]1c1nc(-c2ccc(-c3ccc(-c4c[nH]c([C@@H]5CCCN5C(=O)[C@@H](NC(=O)OC)C(C)C)n4)cc3)cc2)c[nH]1)C(C)C` [BMS-790052], the EC50 (in general, the concentration that produces a half-maximal response) worked out at 4 pM.
